{"source": "patent US9233143B2", "about": "“Medicinal agent for preventing exacerbation of malignant tumor, comprising combination of natriuretic peptide receptor GC-A and GC-B agonists” (National Cerebral and Cardiovascular Center, priority 2011, dated 2016)", "key": {"[1]": {"tested_on": "CAFs", "assay": "Production of cancer exacerbation factors by CAFs under TGF-β1 stimulus (quantitative RT-PCR)", "format": "cell-based, human", "conditions": "test substance 1 μM, TGF-β1 0.125-2.0 ng/mL, 24 hours, mRNA level, FIG. 5", "procedure": "Using a 6-well dish, the CAFs were cultured at 5×10^4 cells/well, and the culture medium was replaced with DMEM culture medium containing 1% FBS the next day. After 24 hours of culture, the cells were used in the following experiment.\nA CNP group (a hCNP-22 solution was added (final concentration: 1 μM)) and a control group (the same amount of physiological saline was added) were prepared, and after 2 hours from the addition (of the hCNP-22 solution or the physiological saline) to the CAFs, TGF-β1 was added so that the final concentration would be 0.125, 0.25, 0.5, 1.0, and 2.0 ng/mL. After 24 hours had passed, total RNA was recovered using TRIZOL total RNA isolation reagent, cDNA was synthesized using reverse transcriptase, and the mRNA levels of VEGF-A, TGF-β1, TNF-α, and IL-6 were measured by quantitative RT-PCR."}, "[2]": {"tested_on": "A549 cells", "assay": "Changes in the intracellular cGMP level in response to natriuretic peptide stimulus, A549 cells", "format": "cell-based, human", "conditions": "1×10^−11 M to 1×10^−6 M, 10 minutes, FIG. 1A", "procedure": "Lung adenocarcinoma cell line, A549 cells, was obtained from ATCC (Manassas, Va.). The cells were cultured in DMEM culture medium (Invitrogen, Carlsbad, Va.) containing 10% FCS under 5% CO2 at 37° C. The amounts of the culture medium were 1.5 mL for each well of a 6-well dish, 400 μL for each well of a 24-well dish, and 150 μL for each well of a 96-well dish. In the Examples below, unless otherwise stated, the same culture medium and culture conditions were adopted.\n(§1) The A549 cells were cultured in a 24-well dish at 4×10^4 cells/well, and the culture medium was replaced with DMEM culture medium free from FCS the next day. The CAFs were cultured in a 24-well dish at 1×10^4 cells/well, and the culture medium was replaced with DMEM culture medium containing 1% FCS the next day.\n(§2) To these culture media, solutions of hANP, hBNP, and hCNP-22 (final concentration: ten-fold serial dilution from 1×10^−11 M to 1×10^−6 M, the same amount of physiological saline was used as a control) were separately added. After 10 minutes had passed, 400 μL of cooled 70% ethanol (containing 0.1 N hydrochloric acid) was added, and ultrasonication was performed for a short time. The treated solution was lyophilized, and the cGMP level was measured using Cyclic GMP Assay kit (made by Yamasa Corp.)."}, "[3]": {"tested_on": "cancer-associated fibroblasts (CAFs)", "assay": "Changes in the intracellular cGMP level in response to natriuretic peptide stimulus, CAFs", "format": "cell-based, human", "conditions": "1×10^−11 M to 1×10^−6 M, 10 minutes, FIG. 1B", "procedure": "For obtaining CAFs (cancer-associated fibroblasts), tissue harvested from a patient having lung cancer surgery was subjected to primary culture after the consent of the patient was obtained. The cells were then cultured in DMEM culture medium containing 10% FCS under 5% CO2 at 37° C., and the cells of the 5th and earlier passages were used.\nas §1, §2"}, "[4]": {"tested_on": "tumor cells", "conditions": "reports by Vesely et al.; cited from earlier work"}, "[5]": {"tested_on": "A549 cells", "assay": "EMT induced by TGF-β1 in A549 cells (morphology, quantitative RT-PCR)", "format": "cell-based, human", "procedure": "Using a 6-well dish, the A549 cells were cultured at 1×10^5 cells/well, and the culture medium was replaced with DMEM culture medium free from FBS the next day. After 24 hours of culture, the cells were used in the following experiment.\nAn ANP group (a hANP solution was added (final concentration: 1 μM)) and a control group (the same amount of physiological saline was added) were prepared, and after 2 hours from the addition (of the hANP solution or the physiological saline) to the A549 cells, TGF-β1 was added so that the final concentration would be 0.125, 0.25, 0.5, 1.0, and 2.0 ng/mL. After 24 hours had passed, the morphological change in the cells was observed under a microscope and photographed (FIG. 2).\nThen, total RNA was recovered from the above prepared ANP group and control group using TRIZOL total RNA isolation reagent (made by Invitrogen), cDNA was synthesized using reverse transcriptase, and the mRNA levels of E-cadherin, N-cadherin, VEGF-A, PDGF-B, TNF-α, and IL-6 were measured by quantitative RT-PCR. The mRNA level of each intended gene was calculated as the relative ratio of the mRNA amount of the gene to that of the housekeeping gene 36B4 measured at the same time. In the Examples below, unless otherwise stated, the mRNA levels were obtained through the same calculation.\nIt is known that in EMT, the expression of E-cadherin decreases while the expression of N-cadherin increases. The expression ratio of the two kinds of cadherin (N-cad/E-cad) is considered to be useful as an indicator of the degree of EMT."}, "[6]": {"tested_on": "A549 cells and CAFs", "assay": "Mouse models having transplanted cancer cells and CAFs, administration started after tumor tissue was established (Example 6)", "format": "in vivo", "conditions": "hANP alone 0.5 μg/kg/min, started 2 weeks after transplantation, 4 weeks, FIG. 10", "procedure": "In this Example and Example 6, 5-week-old male immunodeficient mice (KSN mice, Japan SLC, Inc.) were used. The osmotic pumps used were MODEL2004 (for 28-day administration) made by ALZET (Cupertino, Calif.). A mixed suspension of the A549 cells and the CAFs was prepared using DMEM free from FBS so as to contain the A549 cells at 1×10^6 cells/100 μL and the CAFs at 0.5×10^6 cells/100 μL. The mixed suspension in an amount of 100 μL per mouse was subcutaneously injected in the back of the immunodeficient mice. […] After 2 weeks of observation from the injection of the cell suspension, the mice to which the mixed suspension had been injected were randomly divided into 4 groups (control group, ANP group, CNP group, and ANP+CNP group), and an osmotic pump appropriately adjusted for each group as shown below was subcutaneously implanted to start administration. • Control group and A549 group: physiological saline was administered • ANP group: hANP was administered at 0.5 μg/kg/min • CNP group: hCNP-22 was administered at 2.5 μg/kg/min • ANP+CNP group: hANP was administered at 0.5 μg/kg/min and hCNP-22 was administered at 2.5 μg/kg/min Observation was further continued for 4 weeks after the start of administration, the tumor size at the cell injection site was measured weekly, and tumor volume was calculated in the same way as in Example 5 (FIG. 10)."}, "[7]": {"conditions": "A549 cells, test substance 1 μM, mRNA level, FIG. 3"}}, "data": [{"smiles": "CC[C@H](C)[C@@H]1NC(=O)[C@H](CCCNC(=N)N)NC(=O)[C@H](CC(=O)O)NC(=O)[C@H](CCSC)NC(=O)[C@H](CCCNC(=N)N)NC(=O)CNC(=O)CNC(=O)[C@H](Cc2ccccc2)NC(=O)[C@@H](NC(=O)[C@H](CO)NC(=O)[C@H](CO)NC(=O)[C@H](CCCNC(=N)N)NC(=O)[C@H](CCCNC(=N)N)NC(=O)[C@H](CC(C)C)NC(=O)[C@@H](N)CO)CSSC[C@@H](C(=O)N[C@@H](CC(N)=O)C(=O)N[C@@H](CO)C(=O)N[C@@H](Cc2ccccc2)C(=O)N[C@@H](CCCNC(=N)N)C(=O)N[C@@H](Cc2ccc(O)cc2)C(=O)O)NC(=O)CNC(=O)[C@H](CC(C)C)NC(=O)CNC(=O)[C@H](CO)NC(=O)[C@H](CCC(N)=O)NC(=O)[C@H](C)NC(=O)CNC1=O", "note": "[hANP]", "values": [{"measurement": "gene expression of the growth factors (VEGF-A, TGF-β1) and the inflammatory cytokines (TNF-α, IL-6) increased by the TGF-β1 stimulus in CAFs", "setting": "[1]", "result": "did not show any effect on CAFs"}, {"measurement": "intracellular cGMP level of the A549 cells", "setting": "[2]", "result": "increased the intracellular cGMP level of the A549 cells in a concentration-dependent manner"}, {"measurement": "cGMP level of the CAFs", "setting": "[3]", "result": "did not show such an action"}, {"measurement": "growth-suppressing activity on tumor (cancer) cells", "setting": "[4]", "result": "growth-suppressing effect"}, {"measurement": "expression ratio of N-cad/E-cad (indicator of EMT)", "setting": "[5]; A549 cells, 1 μM hANP, TGF-β1 stimulus, FIG. 4", "result": "significantly decreased"}, {"measurement": "morphological change in the cells associated with EMT induced by the TGF-β1 stimulus", "setting": "[5]; A549 cells, test substance 1 μM, 24 hours after TGF-β1, FIG. 2", "result": "significantly suppressed"}, {"measurement": "gene expression of the growth factors (VEGF-A, PDGF-B) and the inflammatory cytokines (TNF-α, IL-6) increased by EMT induced by the TGF-β1 stimulus", "setting": "[5]; A549 cells, test substance 1 μM, TGF-β1 0.125-2.0 ng/mL, 24 hours, mRNA level, FIG. 3", "result": "significantly suppressed"}, {"measurement": "decrease in the expression of E-cadherin induced by the TGF-β1 stimulus", "setting": "[5]; [7]", "result": "inhibited decrease"}, {"measurement": "increase in the expression of N-cadherin induced by the TGF-β1 stimulus", "setting": "[5]; [7]", "result": "significantly suppressed increase"}, {"measurement": "effect of suppressing EMT", "setting": "[5]; concentration of 1 μM, summary of Example 2", "result": "significantly suppressing EMT"}, {"measurement": "tumor growth as compared with the control group", "setting": "[6]", "result": "showed an effect of tumor growth suppression"}]}]}
